Assay results reported in the supplement of paper PMC7840683.
± gives the standard deviation of the averaged measurements.

Tested on: HepaRG
Experiment: LDH release cytotoxicity, % of total lysis control; higher = more cytotoxic
Details: 48 h
Procedure, shortened: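 Duplicate wells of single-lot HepaRG cells, grown on collagen I-coated 96-well plates, received eight-point half-log series of test chemicals with 100 µM as the top concentration. Exposure lasted 48 h in serum-free induction medium with 0.5% DMSO, while total lysis wells received 0.1% Triton X. Resorufin fluorescence (CytoTox-ONE, Tecan Safire) was used to quantify LDH leaked into 50 µL of spent medium. Values for percent cytotoxicity were normalized to on-plate vehicle and total lysis controls and averaged across the duplicates.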

| SMILES | LDH release cytotoxicity (0.03162 µM) [%] | LDH release cytotoxicity (0.1 µM) [%] | LDH release cytotoxicity (0.3162278 µM) [%] | LDH release cytotoxicity (1 µM) [%] | LDH release cytotoxicity (3.16228 µM) [%] | LDH release cytotoxicity (10 µM) [%] | LDH release cytotoxicity (31.6228 µM) [%] | LDH release cytotoxicity (100 µM) [%] | LDH release cytotoxicity (0.031623 µM) [%] | LDH release cytotoxicity (0.316228 µM) [%] |
| --- | --- | --- | --- | --- | --- | --- | --- | --- | --- | --- |
| NC(=O)N=NCc1ccc([N+](=O)[O-])o1 [Nitrofurazone] | -0.299 ± 0.59 | -1.51 ± 0.4 | -1.48 ± 0.51 | -1.87 ± 0.52 | -1.76 ± 0.92 | -0.788 ± 0.29 | -0.997 ± 0.33 | 0.128 ± 0.43 |  |  |
| CCCCCCC(=O)OCC [Ethyl heptanoate] | -1.33 ± 0.12 | -1.43 ± 1 | -1.58 ± 0.63 | -1.97 ± 0.28 | -1.57 ± 0.64 | -1.28 ± 1.6 | 0.37 ± 1 | 3.07 ± 1.3 |  |  |
| CCCSC(=O)N(CCC)CCC [Vernolate] | -0.794 ± 1.3 | -0.827 ± 0.35 | -0.738 ± 0.55 | -2.07 ± 0.39 | -1.14 ± 0.45 | -0.659 ± 0.55 | 0.0809 ± 0.59 | 1.84 ± 0.39 |  |  |
| CC(C)c1nnc2ccc(-c3ocnc3-c3cc(F)ccc3F)cn12 | -1.28 ± 0.22 | -1.01 ± 0.88 | -1.08 ± 0.44 | -1.31 ± 0.37 | -2.01 ± 0.34 | -1.36 ± 0.45 | -2.04 ± 0.03 | 5.98 ± 0.59 |  |  |
| c1cc2c3c(cccc3c1)CC2 [Acenaphthene] | -0.325 ± 0.66 | -0.376 ± 0.039 | 0.475 ± 0.27 | -0.576 ± 0.93 | -0.0334 ± 0.48 | 0.635 ± 0.44 | 0.885 ± 1.1 | 1.86 ± 0.3 |  |  |
| O=C(O)C(Cl)(Cl)Cl [Sodium trichloroacetate] | -0.75 ± 0.63 | -0.518 ± 0.088 | -1.06 ± 0.36 | -0.987 ± 0.68 | -1.23 ± 1.3 | -0.588 ± 0.51 | 0.00119 ± 0.52 | 0.935 ± 0.7 |  |  |
| CCCCCCCCCCCCCCCCCC(=O)O [Octadecanoic acid] | -0.507 ± 0.67 | -1.75 ± 1.4 | -1.54 ± 0.31 | -1.46 ± 0.77 | -1.45 ± 0.023 | -0.538 ± 0.059 | -0.0805 ± 0.49 | 0.581 ± 0.81 |  |  |
| Cc1cc(C)nc(Nc2ccccc2)n1 [Pyrimethanil] | -0.263 ± 0.12 | -1.12 ± 0.91 | -0.512 ± 0.19 | -1.63 ± 0.11 | -0.622 ± 0.45 | -0.288 ± 0.51 | 0.157 ± 1.1 | 3.8 ± 1.4 |  |  |
| O=C(O)C(F)(F)C(F)(F)C(F)(F)C(F)(F)C(F)(F)F [Perfluorohexanoic acid] | -0.915 ± 0.22 | -0.436 ± 0.56 | -1.48 ± 0.11 | -1.3 ± 0.12 | -1.58 ± 0.4 | -0.342 ± 0.24 | -0.769 ± 0.29 | 0.349 ± 0.23 |  |  |
| COc1cnc(OC)n2nc(NS(=O)(=O)c3c(OCC(F)F)cccc3C(F)(F)F)nc12 [Penoxsulam] | -0.317 ± 0.26 | -1.82 ± 0.45 | -1.21 ± 0.65 | -1.71 ± 0.57 | -0.488 ± 0.1 | -0.309 ± 0.71 | -1.02 ± 0.03 | 0.729 ± 0.1 |  |  |
| CC(C)Nc1nc(Cl)nc(NC(C)C)n1 [Propazine] | -0.771 ± 1.3 | -0.918 ± 1.2 | -0.266 ± 0.027 | -0.0277 ± 0.68 | -0.787 ± 0.95 | -0.398 ± 0.52 | -0.397 ± 0.52 | -0.828 ± 0.37 |  |  |
| COCC(C)OCC(C)OCC(C)O (stereo not given) [Tripropylene glycol monomethyl ether] | -2.65 ± 0.75 | -2.37 ± 0.59 | -2.65 ± 0.77 | -3.43 ± 0.28 | -2.88 ± 0.31 | -1.77 ± 1 | -1.51 ± 0.6 | 0.876 ± 1.4 |  |  |
| CCc1cnc(C2=NC(C)(C(C)C)C(=O)N2)c(C(=O)O)c1 (stereo not given) [Imazethapyr] | -0.727 ± 0.19 | -1.781 ± 0.0048 | -1.13 ± 0.36 | -1.33 ± 0.57 | -1.54 ± 0.26 | -1.13 ± 0.26 | -0.237 ± 0.13 | 0.45 ± 0.53 |  |  |
| OCCCBr [3-Bromo-1-propanol] | 0.25 ± 1.2 | -0.845 ± 0.1 | -1.144 ± 0.0048 | -0.314 ± 0.33 | -0.692 ± 0.86 | -0.0559 ± 0.79 | -0.26 ± 0.065 | 9.22 ± 1.3 |  |  |
| CCC(C)N1C(=O)N=C(C)C(Br)C1=O (stereo not given) [Bromacil] |  | -3.85 ± 1.5 |  | -3.54 ± 0.72 | -3.65 ± 0.22 | -2.46 ± 0.054 | 0.888 ± 0.45 | 5.41 ± 1.2 | -0.635 ± 0.33 | -3.85 ± 0.21 |
| COP(=S)(OC)SCn1nnc2ccccc2c1=O [Azinphos-methyl] | -0.213 ± 1.2 | -0.757 ± 0.34 | -1.67 ± 0.55 | -2.01 ± 0.72 | -0.975 ± 0.6 | 0.0858 ± 0.12 | -0.844 ± 0.45 | 0.533 ± 0.78 |  |  |
| Cc1ncc(CO)c(CO)c1O [Pyridoxine] | -3.02 ± 0.18 | -2.28 ± 1.7 | -2.33 ± 0.68 | -2.01 ± 0.55 | -2.69 ± 0.98 | -2.47 ± 0.94 | -2.46 ± 1.2 | 1.11 ± 0.51 |  |  |
| COP(=O)(OC)C(O)C(Cl)(Cl)Cl (stereo not given) [Trichlorfon] | 0.0437 ± 1.6 | -1.39 ± 0.081 | -0.758 ± 0.2 | -1.43 ± 0.39 | 19.7 ± 0.21 | 73.1 ± 2.5 | 76.8 ± 2.2 | 76.7 ± 1.5 |  |  |
| CC(C)CC(C)O (stereo not given) [4-Methyl-2-pentanol] | -0.36 ± 0.0099 | -0.242 ± 0.16 | -1.1 ± 0.37 | -1.21 ± 0.61 | -1.33 ± 0.84 | -1.04 ± 0.65 | 0.165 ± 0.21 | 2.03 ± 1 |  |  |
| CC[C@H](C)[C@@H](C(=O)O)n1sc2ccccc2c1=O | -0.834 ± 0.66 | -1.623 ± 0.0095 | -0.553 ± 0.09 | -1.34 ± 0.35 | -1.12 ± 0.47 | -0.759 ± 0.13 | -1.34 ± 0.25 | 0.0312 ± 0.63 |  |  |
